Consider 5 compounds from ChEMBL document CHEMBL1201862, “PubChem BioAssay data set” (2004).

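Values below derive from 48-hour exposures of cells grown in 96-well plates, with endpoints linearly interpolated between the two concentrations bracketing the appropriate inhibition level. At the GI50, growth is halved.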 Activity calls are given as the source filed them. No stated cut-off is given here; in the data, active = GI50 up to about 1.1 µM and inactive = higher. Where only a bound is given, the exact number is not on record here.

What all share (assay): growth of human tumour cells (NCI), 48 h
In test [1] the test system is A498.
Test [2] deals with SK-OV-3.
The subject of test [3] is HT-29.
The test system of test [4] is CCRF-CEM.
Test [5] deals with HCT-15.
Test [6] deals with NCI-H226.
In test [7] the test system is EKVX.
The test system of test [8] is SN12C.
Test [9] has as its system ACHN.
Test [10] has as its system RXF 393.
Test [11] has as its system NCI-H522.
For test [12], the system named is SK-MEL-28.
In test [13] the test system is NCI/ADR-RES.
The test system of test [14] is SW-620.
The subject of test [15] is LOX IMVI.
Test [16] relates to OVCAR-4.
The test system of test [17] is K562.
Test [18] relates to T47D.
In test [19] the test system is UO-31.
The test system of test [20] is HCT-116.

As for `CCCCCCCCOCC1S(=O)(=O)OCCOS1(=O)=O`, the GI50 was > 100 µM (inactive) in [1]; > 100 µM (inactive) in test [2]; > 100 µM (inactive) in test [3]; > 100 µM (inactive) in [4]; greater than 100 µM in test [5]; > 100 µM (inactive) in [6]. Besides, the GI50 in [7], in test [8], in test [9], in test [10], in test [11] and in test [12] was > 100 µM (inactive) in each case. The GI50 in test [13], in [14], in test [15], in [16], in [17] and in test [18] was > 100 µM (inactive) throughout. The GI50 in test [19] and in [20] was > 100 µM (inactive) in each case.

As to `O=P(O)(O)CC1OC(CO)C(O)C1O` (stereo not given), the GI50 is > 100 µM (inactive) in test [1]; > 100 µM (inactive) in test [2]; > 100 µM (inactive) in test [3]; > 100 µM (inactive) in test [4]; greater than 100 µM in [5]; > 100 µM (inactive) in [6]. For the same compound, the GI50 in test [7], in test [8], in test [9], in [10], in test [11] and in test [12] was > 100 µM (inactive) in each case. Also, the GI50 in [13], in [14], in test [15], in test [16], in test [17] and in [18] was > 100 µM (inactive) each time. For the same compound, the GI50 in test [19] and in [20] was > 100 µM (inactive) each time.

Regarding `COc1ccc(/C=C/c2cnc3ccccc3n2)cc1OC`, the GI50 was 45.7 µM (inactive) in [1]; 75.7 µM (inactive) in test [2]; 36.1 µM (inactive) in test [3]; > 100 µM (inactive) in test [4]; 37 µM in test [5]; > 100 µM (inactive) in [6]. Further, the GI50 in test [7] is 63.1 µM (inactive); in [8] it was 52.7 µM (inactive); in test [9], > 100 µM (inactive); in test [10], > 100 µM (inactive); in test [11] it was 24.1 µM (inactive); in test [12], 92.3 µM (inactive). Also, the GI50 in [13] is 38.2 µM (inactive); in [14], > 100 µM (inactive); in test [15], 83.8 µM (inactive); in [16], 34.8 µM (inactive); in test [17], 44.5 µM (inactive); in test [18] it was 31 µM (inactive). Besides, the GI50 in test [19] was 34.7 µM (inactive); in [20], 47.2 µM (inactive).

On to `O=C1C=CC(=O)c2c1cc1ccccc1c2O`, for which the GI50 in [1] is 13.5 µM (inactive); in test [2], 18.4 µM (inactive); in [3] it was 7.53 µM (inactive); in [4] it was 0.391 µM (active); in test [5] it was 4.8 µM; in test [6], 20.1 µM (inactive). Also, the GI50 in test [7] is 11.5 µM (inactive); in test [8] it was 12.3 µM (inactive); in test [9] it was 2.84 µM (inactive); in [10], 2.11 µM (inactive); in [11], 1.9 µM (inactive); in test [12], 9.25 µM (inactive). Moreover, the GI50 was 6.18 µM (inactive) in test [13]; 1.86 µM (inactive) in test [14]; 2.72 µM (inactive) in [15]; 2.33 µM (inactive) in [16]; 0.767 µM (active) in test [17]; 1.61 µM (inactive) in [18]. Moreover, the GI50 in test [19] is 3.15 µM (inactive); in test [20], 1.85 µM (inactive).

For the compound `COc1nc(C(Cl)(Cl)Cl)c(Cl)c(OC)c1Cl` [PENCLOMEDINE], the GI50 in [1] is 52.6 µM (inactive); in test [2] it was 16.2 µM (inactive); in test [3], 14.6 µM (inactive); in test [4], 32.5 µM (inactive); in test [5], 40.6 µM; in test [6] it was 34.4 µM (inactive). The GI50 was 40.8 µM (inactive) in test [7]; 39 µM (inactive) in [8]; 39.3 µM (inactive) in test [9]; 36.7 µM (inactive) in test [10]; 33.1 µM (inactive) in [11]; 39.7 µM (inactive) in test [12]. The GI50 in test [13] is 24.3 µM (inactive); in [14], 39.4 µM (inactive); in test [15] it was 29 µM (inactive); in [16], 25.7 µM (inactive); in test [17] it was 26.4 µM (inactive); in test [18], 37.4 µM (inactive). In addition, the GI50 in test [19] is 40.8 µM (inactive); in [20], 41.9 µM (inactive).
